Experiments:
AsPC-1 cells = test: AsPC-1 cell proliferation assay (CellTiter Glo); assay type: cell-based; settings: Homo sapiens, ASPC1, 144 h, 6 days
How it was run: (§1)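 Degradation: 22,000 cells/well grown to ~90% confluency, 24 h compound, fixed/permeabilised, anti-KRAS G12D + β-actin antibodies, near-IR fluorescence, DC50. Proliferation: 3,500 cells/well overnight, 6 d compound, CellTiter Glo luminescence, IC50. Dosing […]–1.5 nM final, 1:3 steps.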

KRAS (G12D) = target: T1, KRAS (G12D) (Homo sapiens, UniProt P01116, G12D); test: KRAS (G12D) cellular degradation assay in AsPC-1 cells; assay type: cell-based; settings: 24 hours, antibody fluorescence (Odyssey CLX), DC50 half-maximal degradation concentration
T1 construct: in-cell western with KRAS G12D antibody after 24 h
How it was run: as §1

T1 sequence (P01116 1-188 isoform P01116-2 G12D): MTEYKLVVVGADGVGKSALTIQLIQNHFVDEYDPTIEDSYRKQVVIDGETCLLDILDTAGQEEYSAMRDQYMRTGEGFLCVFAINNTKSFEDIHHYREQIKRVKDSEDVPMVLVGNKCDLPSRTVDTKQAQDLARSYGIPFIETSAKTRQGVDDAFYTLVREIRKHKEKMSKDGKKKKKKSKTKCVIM

SMILES | IC50 (AsPC-1 cells) | DC50 (KRAS (G12D))
CCn1nccc1-c1ccc([C@H](CO)NC(=O)[C@@H]2C[C@@H](O)CN2C(=O)[C@H](C(C)C)n2cc(-c3ccc(COc4c(-c5c(C)c(F)cc6[nH]ncc56)c(C5CC5)cc5c(N6C[C@@H]7C[C@H]6CN7)nc(OC6CCC(OC)CC6)nc45)cc3)nn2)cc1 (stereo partly drawn) [Example 70, (2S,4R)-1-((2S)-2-(4-(4-(((4-((1S,4S)-2,5-diazabicyclo[2.2.1]heptan-2-yl)-6-cyclopropyl-7-(6-fluoro-5-methyl-1H-indazol-4-yl)-2-((4-methoxycyclohexyl)oxy)quinazolin-8-yl)oxy)methyl)phenyl)-1H-1,2,3-triazol-1-yl)-3-methylbutanoyl)-N—((R)-1-(4-(1-ethyl-1H-pyrazol-5-yl)phenyl)-2-hydroxyethyl)-4-hydroxypyrrolidine-2-carboxamide] | < 10 nM | < 10 nM
CC[C@H](O)[C@H](NC(=O)[C@@H]1C[C@@H](O)CN1C(=O)[C@H](C(C)C)n1cc(-c2ccc(COc3c(-c4c(C)c(F)cc5[nH]ncc45)c(C4CC4)cc4c(N5C[C@@H]6C[C@H]5CN6)nc(OC5CCOCC5)nc34)cc2)nn1)c1ccc(-c2scnc2C)cc1 [Example 139, (2S,4R)-1-((2S)-2-(4-(4-(((4-((1S,4S)-2,5-diazabicyclo[2.2.1]heptan-2-yl)-6-cyclopropyl-7-(6-fluoro-5-methyl-1H-indazol-4-yl)-2-((tetrahydro-2H-pyran-4-yl)oxy)quinazolin-8-yl)oxy)methyl)phenyl)-1H-1,2,3-triazol-1-yl)-3-methylbutanoyl)-4-hydroxy-N-((1R,2S)-2-hydroxy-1-(4-(4-methylthiazol-5-yl)phenyl)butyl)pyrrolidine-2-carboxamide] | < 10 nM | < 10 nM
CO[C@H]1C[C@H](Oc2nc(N(C)[C@H]3CCNC3)c3cc(C4CC4)c(-c4c(C)c(F)cc5[nH]ncc45)c(OCc4ccc(-c5cn([C@H](C(=O)N6C[C@H](O)C[C@H]6C(=O)N[C@H](c6ccc(-c7scnc7C)cc6)[C@H](C)O)C(C)C)nn5)cc4)c3n2)C1 [Example 171, (2S,4R)-1-((2S)-2-(4-(4-(((6-cyclopropyl-7-(6-fluoro-5-methyl-1H-indazol-4-yl)-2-((1r,3S)-3-methoxycyclobutoxy)-4-(methyl((S)-pyrrolidin-3-yl)amino)quinazolin-8-yl)oxy)methyl)phenyl)-1H-1,2,3-triazol-1-yl)-3-methylbutanoyl)-4-hydroxy-N-((1R,2S)-2-hydroxy-1-(4-(4-methylthiazol-5-yl)phenyl)propyl)pyrrolidine-2-carboxamide] | < 10 nM | < 10 nM
CCn1nccc1-c1ccc([C@@H](NC(=O)[C@@H]2C[C@@H](O)CN2C(=O)[C@H](C(C)C)n2cc(-c3ccc(COc4c(-c5c(C)c(F)cc6[nH]ncc56)c(C5CC5)cc5c(N6C[C@@H]7C[C@H]6CN7)nc(O[C@H]6C[C@H](OC)C6)nc45)cc3)nn2)[C@H](C)O)cc1F [Example 195, (2S,4R)-1-((2S)-2-(4-(4-(((4-((1S,4S)-2,5-diazabicyclo[2.2.1]heptan-2-yl)-6-cyclopropyl-7-(6-fluoro-5-methyl-1H-indazol-4-yl)-2-((1r,3S)-3-methoxycyclobutoxy)quinazolin-8-yl)oxy)methyl)phenyl)-1H-1,2,3-triazol-1-yl)-3-methylbutanoyl)-N-((1R,2S)-1-(4-(1-ethyl-1H-pyrazol-5-yl)-3-fluorophenyl)-2-hydroxypropyl)-4-hydroxypyrrolidine-2-carboxamide] | < 10 nM | < 10 nM
CCn1nccc1-c1ccc([C@@H](NC(=O)[C@@H]2C[C@@H](O)CN2C(=O)[C@H](C(C)C)n2cc(-c3ccc(COc4c(-c5c(C)c(F)cc6[nH]ncc56)c(C5CC5)cc5c(N6C[C@@H]7C[C@H]6CN7)nc(OC6CCC7(CC6)COC7)nc45)cc3)nn2)[C@@H](C)O)cc1 [Example 130, (2S,4R)-1-((2S)-2-(4-(4-(((2-((2-oxaspiro[3.5]nonan-7-yl)oxy)-4-((1S,4S)-2,5-diazabicyclo[2.2.1]heptan-2-yl)-6-cyclopropyl-7-(6-fluoro-5-methyl-1H-indazol-4-yl)quinazolin-8-yl)oxy)methyl)phenyl)-1H-1,2,3-triazol-1-yl)-3-methylbutanoyl)-N-((1R,2R)-1-(4-(1-ethyl-1H-pyrazol-5-yl)phenyl)-2-hydroxypropyl)-4-hydroxypyrrolidine-2-carboxamide] | < 10 nM | < 10 nM
CO[C@H]1C[C@H](Oc2nc(N(C)[C@@H]3CCNC3)c3cc(C4CC4)c(-c4c(C)c(F)cc5[nH]ncc45)c(OCc4ccc(-c5cn([C@H](C(=O)N6C[C@H](O)C[C@H]6C(=O)N[C@@H](CO)c6ccc(-c7scnc7C)cc6)C(C)C)nn5)cc4)c3n2)C1 [Example 203, (2S,4R)-1-((2S)-2-(4-(4-(((6-cyclopropyl-7-(6-fluoro-5-methyl-1H-indazol-4-yl)-2-((1r,3R)-3-methoxycyclobutoxy)-4-(methyl((R)-pyrrolidin-3-yl)amino)quinazolin-8-yl)oxy)methyl)phenyl)-1H-1,2,3-triazol-1-yl)-3-methylbutanoyl)-4-hydroxy-N—((R)-2-hydroxy-1-(4-(4-methylthiazol-5-yl)phenyl)ethyl)pyrrolidine-2-carboxamide] | < 10 nM | < 10 nM
CCn1nccc1-c1ccc([C@H](CO)NC(=O)[C@@H]2C[C@@H](O)CN2C(=O)[C@H](C(C)C)n2cc(-c3ccc(COc4c(-c5c(C)c(F)cc6[nH]ncc56)c(C5CC5)cc5c(N6C[C@@H]7C[C@H]6CN7)nc(OC[C@H](C)OC)nc45)c4c3CC4)nn2)cc1 [Example 31, (2S,4R)-1-((2S)-2-(4-(5-(((4-((1S,4S)-2,5-diazabicyclo[2.2.1]heptan-2-yl)-6-cyclopropyl-7-(6-fluoro-5-methyl-1H-indazol-4-yl)-2-((S)-2-methoxypropoxy)quinazolin-8-yl)oxy)methyl)bicyclo[4.2.0]octa-1,3,5-trien-2-yl)-1H-1,2,3-triazol-1-yl)-3-methylbutanoyl)-N—((R)-1-(4-(1-ethyl-1H-pyrazol-5-yl)phenyl)-2-hydroxyethyl)-4-hydroxypyrrolidine-2-carboxamide] | < 10 nM | 10 to 100 nM
CCn1nccc1-c1ccc([C@@H](NC(=O)[C@@H]2C[C@@H](O)CN2C(=O)[C@H](C(C)C)n2cc(-c3ccc(COc4c(-c5c(C)c(F)cc6[nH]ncc56)c(C5CC5)cc5c(N6C[C@@H]7C[C@H]6CN7)nc(O[C@H]6C[C@H](OC)C6)nc45)cc3)nn2)[C@H](C)O)c(F)c1 [Example 198, (2S,4R)-1-((2S)-2-(4-(4-(((4-((1S,4S)-2,5-diazabicyclo[2.2.1]heptan-2-yl)-6-cyclopropyl-7-(6-fluoro-5-methyl-1H-indazol-4-yl)-2-((1r,3S)-3-methoxycyclobutoxy)quinazolin-8-yl)oxy)methyl)phenyl)-1H-1,2,3-triazol-1-yl)-3-methylbutanoyl)-N-((1R,2S)-1-(4-(1-ethyl-1H-pyrazol-5-yl)-2-fluorophenyl)-2-hydroxypropyl)-4-hydroxypyrrolidine-2-carboxamide] | < 10 nM | < 10 nM

From patent US20260295053A1, “COMPOUNDS FOR DEGRADATION AND INHIBITION OF KRAS (G12D) PROTEIN” (Shenzhen Ionova Life Science Co., Ltd., priority 2023, published 2026)
